Tests used:
[1] = tested on: HT-29; assay: Cell culture and GI50 determination (resazurin); type: cell-based; details: Homo sapiens; HT-29, resazurin
Method: MDA-MB-231, HT-29, KM12, HOP-92 and A498 cells were plated at 10,000 cells per well (100 µL per well) in 96-well culture dishes and allowed to incubate for 24 h. The old media was removed, the cells were washed with PBS (phosphate-buffered saline) and fresh media was added. A 5 mmol/L solution of inhibitor (in 100% DMSO) was serially diluted in the culture media (12 different concentrations were used) and allowed to incubate for 72 h (MDA-MB-231) or 48h (A498). Control cells were treated with the same DMSO concentrations. After the incubation period the media was once more removed and the cells were washed with PBS to then be incubated with fresh media containing 86 nmol/L resazurin. After 3 hours, the fluorescence was quantified using a fluorescence microplate reader (Biotek, FLx800™) at the respective excitation and emission wavelength of 560 and 590 nm. Resazurin becomes fluorescent under mitochondrial reduction and its emission directly correlates with the metabolic stability of the cells. The measured fluorescence values were corrected from the control samples containing DMSO and GI50 values were determined by plotting the fraction of metabolically active cells against the log of the drug concentration. All measurements were performed at least in triplicate.

[2] = target: T1, EphA3 (Homo sapiens, UniProt P29320); assay: Surface Plasmon Resonance (SPR) determination of binding and unbinding kinetics; details: immobilized EphA3, 25 °C
T1 sequence (P29320 21-983): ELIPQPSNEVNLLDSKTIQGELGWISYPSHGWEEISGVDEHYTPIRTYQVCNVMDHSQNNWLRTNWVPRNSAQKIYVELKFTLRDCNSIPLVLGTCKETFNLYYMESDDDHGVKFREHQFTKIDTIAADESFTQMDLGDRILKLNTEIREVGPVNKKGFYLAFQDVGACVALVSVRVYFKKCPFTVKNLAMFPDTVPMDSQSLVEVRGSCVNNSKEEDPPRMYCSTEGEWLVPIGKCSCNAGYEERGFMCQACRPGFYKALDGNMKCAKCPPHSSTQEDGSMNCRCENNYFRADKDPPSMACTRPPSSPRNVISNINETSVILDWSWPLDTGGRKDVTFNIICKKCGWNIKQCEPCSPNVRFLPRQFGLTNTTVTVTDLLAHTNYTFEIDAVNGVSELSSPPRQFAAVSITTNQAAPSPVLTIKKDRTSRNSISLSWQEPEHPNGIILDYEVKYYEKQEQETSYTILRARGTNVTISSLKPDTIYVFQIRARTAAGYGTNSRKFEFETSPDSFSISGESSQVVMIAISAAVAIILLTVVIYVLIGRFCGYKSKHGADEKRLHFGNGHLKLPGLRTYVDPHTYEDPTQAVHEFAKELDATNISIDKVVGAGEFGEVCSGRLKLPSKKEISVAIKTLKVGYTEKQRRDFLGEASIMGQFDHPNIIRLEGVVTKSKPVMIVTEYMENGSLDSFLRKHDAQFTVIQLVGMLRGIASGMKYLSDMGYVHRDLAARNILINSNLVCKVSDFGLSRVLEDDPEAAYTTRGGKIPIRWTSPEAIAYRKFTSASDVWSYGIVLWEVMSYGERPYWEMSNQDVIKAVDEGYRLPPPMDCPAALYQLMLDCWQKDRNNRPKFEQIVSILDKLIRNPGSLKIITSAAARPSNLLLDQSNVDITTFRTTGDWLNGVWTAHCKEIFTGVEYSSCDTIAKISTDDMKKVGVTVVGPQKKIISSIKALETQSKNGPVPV
Method: The affinity of compound 2 towards EphA3 was determined using Surface Plasmon Resonance measurements on a ProteOn XPR36 (Bio-Rad Laboratories, AG). EphA3 was immobilized on a GLH chip (Bio-Rad Laboratories AG) by standard amine coupling procedures achieving a RU of 4000-6000 and equilibrated with steriled-filtered buffer (10mM HEPES, 150mM NaCl, 3mM EDTA, 0.005% Tween 20 pH 8.0) with a flow rate of 60µL/min. Association of compound 2 was performed at 25 °C using serial dilutions of the inhibitors in duplicates for 400s, whereas dissociation of the inhibitors from the chip was monitored for 36,000 seconds. Data were normalized using interspot referencing and subtraction of a separate analyte channel run with buffer and BSA. All sensograms were fitted using a 1:1 Langmuir model provided by the ProteOn Manager Software (Bio-Rad Laboratories AG), and the association (kon) and dissociation ([…]) rate constants were used to determine the equilibrium dissociation constants (KD).

[3] = tested on: protein kinases; assay: Selectivity profile with respect to protein kinases; type: binding; details: kinase groups TK, TKL, STE, CK1, AGC, CAMK, CMGC, other (Fig. 1)
From the text: A selectivity profile of compound 2 with respect to protein kinases is depicted in Figure 1. The protein kinases are selected from tyrosine kinases (TK), tyrosine kinase-like kinases (TKL), STE-Group, Cell Kinases 1 (CK1), AGC-Group, Calmodulin/Calcium regulated kinases (CAMK), CMGC Group and other kinases. The larger the respective dot, the higher the binding affinity of the compound to the respective protein kinases. […] As per Kawasaki Y. and Freire E. in Drug Discovery Today, 2011 November; 16(21-22): 985-990, "[e]xtremely high affinity and selectivity are two of the most sought-after properties of drug molecules."

Cc1ccc(O)cc1-n1c(N)c(C(N)=O)c2nc3ccccc3nc21 [Compound 2, 2-Amino-1-(5-hydroxy-2-methylphenyl)-1H-pyrrolo[2,3-b]quinoxaline-3-carboxamide]
GI50 [1]: 4.59 µM | Kd ([2]; 1:1 Langmuir model, read-out: dissociation constant (KD)): 0.006 µM | residence time ([2]; reciprocal value of koff, read-out: τoff (residence time) (converted)): 11 min | selectivity profile (binding affinity) with respect to protein kinases [3]: selectivity towards tyrosine kinases (TK)

Source: patent EP2924040A1, “2-Amino-1-(o-tolyl)pyrrolo[3,2-b]quinoxaline-3-carboxamide derivates” (Universität Zürich, priority 2014, dated 2015)
